Laboratory results published in paper PMC10748079, “Discovery of Potent Indolyl-Hydrazones as Kinase Inhibitors for Breast Cancer: Synthesis, X-ray Single-Crystal Analysis, and In Vitro and In Vivo Anti-Cancer Activity Evaluation” (Pharmaceuticals, 2023).
Several values for one entry are separate records, joined by “and”; a condition that tells them apart may be missing. Equal entries are not always repeated.

Experiments:
[1] = system: MCF-7 breast cancer cells; test: MTT cytotoxicity assay; format: cell-based; conditions: for IC50: MCF-7 cells, MTT, 48 h, mean ± SD of three independent values; for fold higher potency than reference drug staurosporine against MCF-7: versus staurosporine
Experimental: The National Research Institute in Egypt donated the breast cancer (MCF-7) cells, which were collected and cultured in RPMI-1640 medium L-glutamine (Lonza Verviers SPRL, Verviers, Belgium, cat#12-604F). The 10% fetal bovine serum (FBS; Sigma-Aldrich, St. Louis, MO, USA) and 1% penicillin-streptomycin (Lonza, Belgium) were given to each of the two cell lines.
All cells were cultured, following routine tissue culture work, in 5% CO2 humidified at 37 °C. Cells were exposed to compounds at concentrations of 0.01, 0.1, 1, 10, and 100 μM on the second day of culturing. After 48 h, cell viability was evaluated using the MTT solution (Promega, Madison, WI, USA). MTT dye (20 μL) was placed into each well, and the plate was then incubated for three hours. Absorbance was subsequently measured at 570 nm using the ELISA microplate reader (BIO-RAD, model iMark, Tokyo, Japan), and the percentage of cell viability was calculated, compared to control, as (mean absorbance of tested compound)/(mean absorbance in control) × 100. Finally, IC50 values were found using the nonlinear dose–response sigmoidal curve in GraphPad Prism 7 [39].

[2] = system: MCF-7 cells; test: Wound-healing assay (scratch assay); format: cell-based; conditions: MCF-7, treated at IC50 of compound, 48 h, mean ± SD
Experimental: The wound-healing test was mentioned in previous research. Six-well plates containing starvation media were filled with four […] MCF-7 cells per well, and the plates were subsequently incubated at 37 °C for the whole night. A sterile 1 mL pipette tip was used to generate a scratch of the cell monolayer once it was established the following day that the cells had adhered to the well and that cell confluence had reached 90%. Starvation media was used to clean the cells before they were removed from the plates. […] After 48 h, the medium was immediately changed to PBS, the wound gap was examined, and cells—both control and treated—were captured on camera with a digital camera attached to an Olympus microscope. The region where the wound closes was measured.

[3] = system: MCF-7 cells; test: Annexin V/PI staining flow cytometry (apoptosis/necrosis); format: cell-based; conditions: MCF-7, treated at IC50, 48 h
Experimental: (§1) Annexin V/PI staining and cell cycle analysis […] MCF-7 cells were added to 6-well culture plates, which were then placed in the incubator for the night. […] Following that, PBS was rinsed with ice-cold water before cells and media supernatants were gathered. The cells were then treated with “Annexin V-FITC solution (1:100) and propidium iodide (PI)” at a concentration of 10 µg/mL for 30 min in the dark after being suspended in […] of annexin-binding buffer solution, which was composed of 25 mM CaCl2, 1.4 M NaCl, and 0.1 M Hepes/NaOH, pH 7.4. Then, labeled cells were collected using the Cytoflex FACS system. The data were assessed using the cytExpert program.

[4] = system: MCF-7 cells; test: DNA content flow cytometry (cell cycle analysis); format: cell-based; conditions: MCF-7, treated at IC50, 48 h
Experimental: as §1

[5] = system: Solid Ehrlich carcinoma (SEC); test: In vivo antitumor activity in SEC-bearing mice; parameters: species or system Swiss albino mice; conditions: IP, 5 mg/kg; for solid tumor mass: SEC control 398.1 mg; for tumor proliferation inhibition (TIR%): TIR% = C − T/C × 100
Experimental: The Suez Canal University Research Ethics Committee gave the experimental procedure their seal of approval (approval number REC219/2023, Faculty of Science, Suez Canal University). The full, detailed methodology is supported in the Supplementary Materials.
Animals and tumor cell line
Adult female Swiss albino mice purchased from Theodor Bilharzia Research Institute, Giza, Egypt, with an average body weight of (18-23) g was used. Mice were housed under constant conditions of 12 h light/dark cycle in a […], with free access to standard laboratory mice food and water .All procedures related to care and maintenance of the animals were performed according to the international guiding principles for animal research and approved by Faculty of Science, Suez Canal University bioethics and animal ethics committee (Approval […]
Solid Ehrlich carcinoma (SEC) were got from the National Cancer Institute (Cairo University, Egypt). The tumor cell line was proliferated in mice through serial intraperitoneal (I.P.) transplantation of a volume of 0.2 mL physiological saline contains 1 × 10^6 viable cells for 24 h. SEC cells were collected 7 days after I.P. implantation. The harvested cells were diluted with saline to obtain a concentration of 5 × 10^6 viable SEC cells/mL. A volume of 0.2 mL saline contains 1 × 10^6 SEC cells that were I.P. implanted into each normal mouse. SEC cells (1 × 10^6 tumor cells/mouse) were implanted subcutaneously into the right thigh of the hind limb.
The experimental animals were randomly divided into four groups. Group 1 served as the normal saline control (5 mL/kg B.Wt., I.P.). Group 2 served as the SEC control (1 × 10^6 cells/mouse). Group 3 served as the compound-treated group (5 mg/kg B.Wt., I.P.).
Group 4 received the standard anticancer drug of Doxorubicin (DOX) (5 mg/kg BW, I.P.) and is considered as a reference control. Body weight and survival were recorded daily until the 24th day in both treated and control groups. At the end of experiment, the blood of each group was collected under light anesthesia for estimation of hematological and biochemical assays. The anesthetized animals were then sacrificed for evaluation of the antitumor activity and histopathological examination.
It includes tumor volume, weight, and tumor inhibition ration (TIR%). Time interval measurements of tumor volume using digital Vernier caliper (Tricle Brand, Shanghai, […]
China). Measure tumor length and width using clipper and then calculate tumor volume using formulations V = (L x W x W)/2, where V is tumor volume, W is tumor width, L is […]
tumor length. […]

[6] = molecular target: T1, AKT-1 (Homo sapiens, UniProt P31749); test: Kinase inhibitory assay (ELISA kit); format: biochemical; conditions: average of three independent replicates; read-out: IC50 ± SD AKT-1
T1 construct: purchased Bioscience, USA #78038
Experimental: (§2) The following calculation was used to compute the proportion that chemicals inhibited autophosphorylation: […]. Using the GraphPad prism7 program, the IC50 was calculated using the curves of percentage inhibition of five concentrations of each chemical.

[7] = molecular target: T2, CDK2 (Homo sapiens, UniProt P24941); test: Kinase inhibitory assay (ELISA kit); format: biochemical; conditions: average of three independent replicates; read-out: IC50 ± SD CDK2
T2 construct: purchased Bioscience, USA #79599
Experimental: as §2

[8] = molecular target: T3, EGFR (Homo sapiens, UniProt P00533); test: Kinase inhibitory assay (ELISA kit); format: biochemical; conditions: average of three independent replicates; read-out: IC50 ± SD EGFR
T3 construct: purchased Bioscience, USA #40321
Experimental: as §2

[9] = molecular target: T4, PI3K-α (Homo sapiens, UniProt P42336); test: Kinase inhibitory assay (ELISA kit); format: biochemical
T4 construct: purchased Bioscience, USA #40639
Experimental: as §2

[10] = molecular target: T5, PI3K-β (Homo sapiens, UniProt P42338); test: Kinase inhibitory assay (ELISA kit); format: biochemical; conditions: average of three independent replicates; read-out: IC50 ± SD PI3K-β
T5 construct: purchased Bioscience, USA #79802
Experimental: as §2

[11] = molecular target: T6, PI3K-δ (Homo sapiens, UniProt O00329); test: Kinase inhibitory assay (ELISA kit); format: biochemical; conditions: average of three independent replicates; read-out: IC50 ± SD PI3K-δ
T6 construct: purchased Bioscience, USA #40628
Experimental: EGFR (catalog #40321), CDK2 (catalog #79599), AKT (catalog #78038), PI3K-α (catalog #40639), β (catalog #79802), and δ (catalog #40628) kinase inhibitions were conducted using an ELISA kit in accordance with the manufacturer instructions from Bioscience, USA. To assess the inhibitory potency of compound 5 against the kinase activity, kinase inhibitory tests were carried out. The following calculation was used to compute the proportion that chemicals inhibited autophosphorylation: […]. Using the GraphPad prism7 program, the IC50 was calculated using the curves of percentage inhibition of five concentrations of each chemical.

T6 sequence (O00329 whole entry): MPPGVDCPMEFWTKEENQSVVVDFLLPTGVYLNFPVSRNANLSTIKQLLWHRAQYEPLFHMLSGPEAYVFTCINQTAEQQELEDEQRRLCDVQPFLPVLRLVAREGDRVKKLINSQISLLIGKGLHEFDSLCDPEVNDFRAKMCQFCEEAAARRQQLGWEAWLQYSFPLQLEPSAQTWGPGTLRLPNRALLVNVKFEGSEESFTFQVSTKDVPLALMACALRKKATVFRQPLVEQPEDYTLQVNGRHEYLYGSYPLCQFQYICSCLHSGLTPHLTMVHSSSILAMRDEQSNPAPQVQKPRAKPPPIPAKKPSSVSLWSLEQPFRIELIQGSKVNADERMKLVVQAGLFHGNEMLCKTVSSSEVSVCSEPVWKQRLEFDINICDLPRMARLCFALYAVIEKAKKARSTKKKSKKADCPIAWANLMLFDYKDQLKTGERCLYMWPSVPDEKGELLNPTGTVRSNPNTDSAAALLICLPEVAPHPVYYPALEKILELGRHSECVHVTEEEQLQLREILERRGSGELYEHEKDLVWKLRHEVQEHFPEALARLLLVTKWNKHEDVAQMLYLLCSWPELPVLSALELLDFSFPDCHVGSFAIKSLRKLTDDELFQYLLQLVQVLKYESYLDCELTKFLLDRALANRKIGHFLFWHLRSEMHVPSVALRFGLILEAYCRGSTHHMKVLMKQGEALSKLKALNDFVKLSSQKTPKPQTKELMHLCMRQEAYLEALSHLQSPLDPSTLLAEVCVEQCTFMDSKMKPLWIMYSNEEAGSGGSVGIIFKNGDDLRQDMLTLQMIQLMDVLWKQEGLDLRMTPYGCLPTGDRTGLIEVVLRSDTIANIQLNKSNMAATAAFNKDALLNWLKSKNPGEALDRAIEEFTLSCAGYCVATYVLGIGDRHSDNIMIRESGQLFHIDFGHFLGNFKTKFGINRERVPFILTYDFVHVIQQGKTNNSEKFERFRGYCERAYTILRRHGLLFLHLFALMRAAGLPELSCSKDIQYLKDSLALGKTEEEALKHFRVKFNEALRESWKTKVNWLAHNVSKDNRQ
T6 sequence (P27986 whole entry partner): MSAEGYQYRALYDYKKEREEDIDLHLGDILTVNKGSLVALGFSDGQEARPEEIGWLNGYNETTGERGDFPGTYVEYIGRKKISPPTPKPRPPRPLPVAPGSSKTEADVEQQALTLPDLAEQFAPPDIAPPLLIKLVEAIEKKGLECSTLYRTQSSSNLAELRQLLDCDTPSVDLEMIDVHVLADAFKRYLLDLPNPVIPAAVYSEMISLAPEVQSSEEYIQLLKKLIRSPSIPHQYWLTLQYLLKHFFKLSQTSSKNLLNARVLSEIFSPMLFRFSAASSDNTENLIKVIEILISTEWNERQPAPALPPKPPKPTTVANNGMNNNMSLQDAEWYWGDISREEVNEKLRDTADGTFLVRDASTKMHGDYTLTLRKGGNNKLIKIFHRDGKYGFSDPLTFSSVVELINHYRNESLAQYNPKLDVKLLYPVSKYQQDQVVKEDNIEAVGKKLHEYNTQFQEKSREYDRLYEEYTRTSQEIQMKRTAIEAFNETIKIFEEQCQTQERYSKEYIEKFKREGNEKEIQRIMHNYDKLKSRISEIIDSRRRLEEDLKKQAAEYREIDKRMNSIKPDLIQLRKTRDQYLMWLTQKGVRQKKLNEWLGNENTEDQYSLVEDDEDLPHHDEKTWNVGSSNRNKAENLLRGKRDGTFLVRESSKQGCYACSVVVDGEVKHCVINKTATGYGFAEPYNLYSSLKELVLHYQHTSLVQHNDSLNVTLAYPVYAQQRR
T4 sequence (P42336 whole entry): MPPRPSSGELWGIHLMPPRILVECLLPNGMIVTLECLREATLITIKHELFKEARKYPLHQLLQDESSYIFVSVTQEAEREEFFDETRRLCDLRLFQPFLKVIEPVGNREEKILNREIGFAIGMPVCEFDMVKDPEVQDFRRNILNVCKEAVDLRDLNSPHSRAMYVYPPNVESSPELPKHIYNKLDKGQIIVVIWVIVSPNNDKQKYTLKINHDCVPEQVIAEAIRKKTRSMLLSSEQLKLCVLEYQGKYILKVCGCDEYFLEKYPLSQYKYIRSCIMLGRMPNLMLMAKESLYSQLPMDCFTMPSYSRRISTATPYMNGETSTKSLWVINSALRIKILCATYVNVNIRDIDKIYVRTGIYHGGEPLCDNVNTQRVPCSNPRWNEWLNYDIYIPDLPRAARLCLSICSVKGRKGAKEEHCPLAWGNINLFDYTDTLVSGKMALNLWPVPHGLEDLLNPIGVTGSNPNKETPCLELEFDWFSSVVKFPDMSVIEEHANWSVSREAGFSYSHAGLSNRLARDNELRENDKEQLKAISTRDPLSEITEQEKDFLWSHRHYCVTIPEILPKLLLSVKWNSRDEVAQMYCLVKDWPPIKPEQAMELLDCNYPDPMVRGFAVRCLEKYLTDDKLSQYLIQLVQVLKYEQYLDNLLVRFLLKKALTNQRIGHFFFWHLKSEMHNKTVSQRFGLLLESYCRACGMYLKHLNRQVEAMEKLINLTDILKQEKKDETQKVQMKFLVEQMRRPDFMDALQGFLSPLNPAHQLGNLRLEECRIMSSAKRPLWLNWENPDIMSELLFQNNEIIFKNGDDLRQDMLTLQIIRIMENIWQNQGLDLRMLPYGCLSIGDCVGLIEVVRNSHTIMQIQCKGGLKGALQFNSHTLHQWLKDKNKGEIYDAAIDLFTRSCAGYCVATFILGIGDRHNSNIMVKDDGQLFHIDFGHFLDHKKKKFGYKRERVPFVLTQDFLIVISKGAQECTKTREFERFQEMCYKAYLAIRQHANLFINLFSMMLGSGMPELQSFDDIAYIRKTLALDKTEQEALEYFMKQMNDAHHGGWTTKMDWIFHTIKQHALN
T4 sequence (P27986 whole entry partner): as the sequence (P27986 whole entry partner) above
T5 sequence (P42338 whole entry): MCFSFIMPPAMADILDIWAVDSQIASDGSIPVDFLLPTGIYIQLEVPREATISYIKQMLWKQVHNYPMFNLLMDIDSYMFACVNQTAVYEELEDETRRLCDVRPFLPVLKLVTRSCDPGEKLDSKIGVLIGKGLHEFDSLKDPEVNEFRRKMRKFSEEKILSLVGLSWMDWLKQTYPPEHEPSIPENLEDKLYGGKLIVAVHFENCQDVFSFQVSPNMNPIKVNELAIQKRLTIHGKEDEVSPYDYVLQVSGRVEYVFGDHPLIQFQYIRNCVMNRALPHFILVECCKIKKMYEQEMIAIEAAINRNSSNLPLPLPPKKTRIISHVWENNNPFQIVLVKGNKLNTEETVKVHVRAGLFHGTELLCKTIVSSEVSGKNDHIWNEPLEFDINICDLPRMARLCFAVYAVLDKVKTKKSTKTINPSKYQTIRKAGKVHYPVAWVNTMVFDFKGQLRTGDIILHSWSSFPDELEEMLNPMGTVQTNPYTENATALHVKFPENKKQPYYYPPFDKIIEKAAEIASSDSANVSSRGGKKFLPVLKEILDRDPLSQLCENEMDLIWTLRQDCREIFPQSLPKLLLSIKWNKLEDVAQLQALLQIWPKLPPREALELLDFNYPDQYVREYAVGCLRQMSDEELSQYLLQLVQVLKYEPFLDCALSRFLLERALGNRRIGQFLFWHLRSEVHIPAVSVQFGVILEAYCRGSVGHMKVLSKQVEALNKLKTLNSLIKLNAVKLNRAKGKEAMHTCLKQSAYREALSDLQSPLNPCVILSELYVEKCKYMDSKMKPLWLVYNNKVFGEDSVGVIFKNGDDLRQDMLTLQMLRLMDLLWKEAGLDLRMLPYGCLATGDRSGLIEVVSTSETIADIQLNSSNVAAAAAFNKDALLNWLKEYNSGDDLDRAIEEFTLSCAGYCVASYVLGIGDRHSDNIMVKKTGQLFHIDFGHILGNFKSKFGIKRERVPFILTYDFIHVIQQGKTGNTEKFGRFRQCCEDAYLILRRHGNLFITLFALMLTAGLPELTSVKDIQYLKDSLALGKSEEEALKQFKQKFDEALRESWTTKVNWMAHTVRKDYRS
T5 sequence (P27986 whole entry partner): as the sequence (P27986 whole entry partner) above
T1 sequence (P31749 whole entry): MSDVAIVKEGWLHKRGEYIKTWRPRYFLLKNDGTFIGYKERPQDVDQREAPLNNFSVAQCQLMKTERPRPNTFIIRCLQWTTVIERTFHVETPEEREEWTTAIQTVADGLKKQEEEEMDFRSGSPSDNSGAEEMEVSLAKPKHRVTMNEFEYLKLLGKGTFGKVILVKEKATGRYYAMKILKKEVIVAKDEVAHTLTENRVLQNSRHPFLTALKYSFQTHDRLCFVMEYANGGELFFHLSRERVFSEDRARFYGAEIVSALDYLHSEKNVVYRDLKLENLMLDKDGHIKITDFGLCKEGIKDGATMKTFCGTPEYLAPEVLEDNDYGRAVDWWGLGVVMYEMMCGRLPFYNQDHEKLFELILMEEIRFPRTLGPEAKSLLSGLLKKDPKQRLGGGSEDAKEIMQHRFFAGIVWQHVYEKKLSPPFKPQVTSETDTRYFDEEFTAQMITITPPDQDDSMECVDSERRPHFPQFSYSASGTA

| SMILES | %Closure, MCF-7 (wound closure) [2] | Annexin V/PI Staining Early (early apoptosis) [3] [%] | Annexin V/PI Staining Late (late apoptosis) [3] [%] | Annexin V/PI Staining Necrosis [3] [%] | Annexin V/PI Staining Total (total cell death) [3] | DNA Content %G0-G1 [4] [%] | DNA Content %G2/M [4] [%] | DNA Content %Pre-G1 [4] [%] | DNA Content %S [4] | IC50 ([1]; Homo sapiens, MCF7, 48 h) [µM] | melting point [°C] | also measured |
| --- | --- | --- | --- | --- | --- | --- | --- | --- | --- | --- | --- | --- |
| CCOC(=O)c1[nH]c2ccccc2c1/C=N/Nc1ccc([N+](=O)[O-])cc1[N+](=O)[O-] [Compound 12, Ethyl (E)-3-((2-(2,4-dinitrophenyl)hydrazineylidene)methyl)-1H-indole-2-carboxylate] | 51.85% and 51.8% | 4.59 | 17.44 | 15.02 | 37% and 37.05% | 59.33 | 2.55 | 37.05 | 38.10% | – | – | IC50 ([1]; Homo sapiens, MCF7): 7.03 ± 0.37 µM |
| O=c1[nH]cc(F)c(=O)[nH]1 [Compound 5-FU, 5-FU, reference compound] | – | – | – | – | – | – | – | – | – | – | – | tumor volume [5]: 43.7 mm^3; solid tumor mass [5]: 110 mg; tumor proliferation inhibition (TIR%) [5]: 58.8% |
| CCOC(=O)c1[nH]c2ccccc2c1/C=N/N=C/c1c(C(=O)OCC)[nH]c2ccccc12 [Compound 5, Diethyl 3,3’-((1E,1’E)-hydrazine-1,2-diylidenebis(methaneylylidene))bis(1H-indole-2-carboxylate)] | 48.88% and 48.8% | 7.11 | 22.24 | 9.91 | 39.26% | 39.07 | 4.74 | 39.26 | 56.2% and 56.19% | 2.73 ± 0.14 | – | fold higher potency than reference drug staurosporine against MCF-7 [1]: 3 fold; apoptosis (apoptosis ratio, early + late) [3]: 29.35%; IC50 [6]: 0.602 ± 0.03 µM; IC50 [7]: 0.156 ± 0.01 µM; IC50 [8]: 0.058 ± 0.029 µM; IC50 ([9]; average of three independent replicates, read-out: IC50 ± SD PI3K-α): 1.73 ± 0.1 µM; fold higher potency than LY294002 against PI3K-α ([9]; versus LY294002): 4.92 fold; IC50 [10]: 2.27 ± 0.11 µM; IC50 [11]: 2.68 ± 0.15 µM; tumor volume [5]: 56.4 mm^3; solid tumor mass [5]: 126.5 mg; tumor proliferation inhibition (TIR%) [5]: 46.9% |
| O=c1cc(N2CCOCC2)oc2c(-c3ccccc3)cccc12 [LY294002, reference compound] | – | – | – | – | – | – | – | – | – | – | – | IC50 [11]: 0.85 ± 0.05 µM |
| CCOC(=O)c1[nH]c2ccccc2c1/C=N/NC(N)=O [Compound 6, Ethyl (E)-3-((2-carbamoylhydrazineylidene)methyl)-1H-indole-2-carboxylate] | – | – | – | – | – | – | – | – | – | 10.2 ± 0.53 | 285 to 286 | IC50 [1]: 9.42 ± 0.57 µM |
| CCOC(=O)c1[nH]c2ccccc2c1C=O [Compound 1, ethyl 3-formyl-1H-indole-2-carboxylate] | – | – | – | – | – | – | – | – | – | 19.7 ± 2.31 | – | – |
| CCOC(=O)c1[nH]c2ccccc2c1/C=N/NC(N)=S [Compound 3, Ethyl (E)-3-((2-carbamothioylhydrazineylidene)methyl)-1H-indole-2-carboxylate] | – | – | – | – | – | – | – | – | – | 9.42 ± 0.57 | 229 to 230 | IC50 [1]: 10.2 ± 0.53 µM |
| CCOC(=O)c1[nH]c2ccccc2c1/C=N/Nc1ccc([N+](=O)[O-])cc1 [Compound 10, Ethyl (E)-3-((2-(4-nitrophenyl)hydrazineylidene)methyl)-1H-indole-2-carboxylate] | – | – | – | – | – | – | – | – | – | 25.4 ± 1.54 | 270 to 271 | – |
| CCOC(=O)c1[nH]c2ccccc2c1/C=N/n1c(-c2cc3ccccc3[nH]2)n[nH]c1=S [Compound 8, Ethyl (E)-3-(((3-(1H-indol-2-yl)-5-thioxo-1,5-dihydro-4H-1,2,4-triazol-4-yl)imino)methyl)-1H-indole-2-carboxylate] | 60.74% and 60.7% | 2.27 | 13.45 | 8.66 | 24.4% and 24.38% | 47.10 | 6.57 | 24.38 | 46.31% | 4.38 ± 0.23 | – | fold higher potency than reference drug staurosporine against MCF-7 [1]: up to 1.9 fold; apoptosis (apoptosis ratio, early + late) [3]: 15.72% |
